Source: patent US20230124720A1, “APPLICATION OF ACRIDINEDIONE COMPOUND IN PREPARATION OF ANTI-DIABETIC DRUGS” (THE FOURTH MILITARY MEDICAL UNIVERSITY, priority 2020, published 2023)

Columns and labels:
STZ-induced T2DM rats [1] = experiment: Insulin tolerance test (ITT) in T2DM rats; type: in vivo, rat
Procedure: 150 male SD rats, housed in cages in a clean constant temperature (23±2° C.) and humidity (55±10%) animal house, were manually adjusted on a daily 12 h/12 h diurnal light cycle with free access to water. After 3 days of adaptive feeding, 150 rats were randomly divided into normal and model groups. The normal (Con, n=15) group of rats remained on raw chow and the model group (n=135) of rats were given high fat high sugar chow. All rats were fed twice daily and the amount of feed was adjusted as needed to ensure adequate feed. After 8 weeks of group feeding, the model group rats were given an intraperitoneal injection of 25 mg/kg STZ solution with a 12 h fast prior to injection. After injection, feeding was continued as in the original method, blood was taken from the tail vein at 72 h for blood glucose measurement, and rats with fasting blood glucose levels ≥11.1 mmol/L on different days were screened for successful artificial induction of T2DM and administered in groups for the next experiment. 135 rats with successful modeling were randomly divided into 9 groups: […] (2) 0.01 mg/kg ADD-16 administration group (ADD I, n=15): daily administration of 0.01 mg/kg ADD-16 solution by gavage; (3) 0.1 mg/kg ADD-16 administration group (ADD II, n=15): daily administration of a 0.1 mg/kg ADD-16 solution by gavage; (4) 1 mg/kg ADD-16 administration group (ADD III, n=15): daily administration of a 1 mg/kg ADD-16 solution by gavage; (5) 3 mg/kg ADD-16 administration group (ADD IV, n=15): daily administration of a 3 mg/kg ADD-16 solution by gavage; (6) 10 mg/kg ADD-16 administration group (ADD V, n=15): daily administration of a 10 mg/kg ADD-16 solution by gavage; (7) 50 mg/kg ADD-16 administration group (ADD VI, n=15): daily administration of a 50 mg/kg ADD-16 solution by gavage; […] (9) Sitagliptin control group (ST, n=15): daily administration of a 6 mg/kg sitagliptin solution by gavage. […] Relevant indicators of lipid metabolism were measured after the end of the study. […] After the 120 min blood glucose value determination was completed, the diet was resumed. In the test, the condition of the rats was observed, and when abnormalities occurred, the experiment was stopped in time and a glucose solution was given by gavage to prevent death due to hypoglycemia.

STZ-induced T2DM rats [2] = experiment: Serum lipid metabolism indicators in T2DM rats; type: in vivo, rat
Procedure: 150 male SD rats, housed in cages in a clean constant temperature (23±2° C.) and humidity (55±10%) animal house, were manually adjusted on a daily 12 h/12 h diurnal light cycle with free access to water. After 3 days of adaptive feeding, 150 rats were randomly divided into normal and model groups. The normal (Con, n=15) group of rats remained on raw chow and the model group (n=135) of rats were given high fat high sugar chow. All rats were fed twice daily and the amount of feed was adjusted as needed to ensure adequate feed. After 8 weeks of group feeding, the model group rats were given an intraperitoneal injection of 25 mg/kg STZ solution with a 12 h fast prior to injection. After injection, feeding was continued as in the original method, blood was taken from the tail vein at 72 h for blood glucose measurement, and rats with fasting blood glucose levels ≥11.1 mmol/L on different days were screened for successful artificial induction of T2DM and administered in groups for the next experiment. 135 rats with successful modeling were randomly divided into 9 groups: […] […] Relevant indicators of lipid metabolism were measured after the end of the study.

GPR40 = experiment: Insulin secretion in MIN6 cells with GPR40 inhibitor GW1100; type: cell-based, mouse; details: 10 μmol/L GW1100 + 10 μmol/L ADD-16, 24 h
Procedure: MIN6 cells were seeded in 24-well plates and cultured as described in step 2.1 to a cell confluency of more than 80% and administrated in the following groups, with 12 replicates per group: (1) normal control group (Con): cultured with blank 1640 medium; (2) GW9508 group: 1 μmol/L GW9508 intervention for 24 h; (3) GW1100 group: 10 μmol/L GW1100 intervention for 24 h; (4) ADD-16 group (ADD): 10 μmol/L ADD-16 intervention for 24 h; (5) GW1100+GW9508 group: 10 μmol/L GW1100+1 μmol/L GW9508 intervention for 24 h; (6) GW1100+ADD-16 group: 10 μmol/L GW1100+10 μmol/LADD-16 intervention for 24 h. After the group administration, the medium was aspirated and washed 2 times with a KRB buffer without sugar, followed by the addition of the KRB buffer without sugar. After incubation at 37° C. for 30 min, the buffer was aspirated and each group was divided into two, i.e., 6 replicates for each group, and KRB buffers containing 2.8 mmol/L and 16.7 mmol/L glucose was added respectively. After incubation at 37° C. for 1 h, all the medium in the wells was aspirated and centrifuged at 2000 rmp/min for 20 min, and the supernatant was collected and stored at −20° C. The insulin content was measured for each group.

ZDF rat islet tissue = experiment: Western Blot of insulin signaling related molecules in ZDF rat islet tissue; type: in vivo; details: compared to TD group, P<0.001, most pronounced at 10 mg/kg
[3] = n = 6

## CC1(C)CC(=O)C2=C(C1)NC1=C(C(=O)CC(C)(C)C1)C2c1ccc(OCc2ccc(C(=O)O)cc2)c(Br)c1 [ADD-16]
STZ-induced T2DM rats [1]; ADD IV group, 3 mg/kg daily by gavage
  decrease of ITT AUC compared to the TD group: 46.5%
STZ-induced T2DM rats [1]; ADD V group, 10 mg/kg daily by gavage
  decrease of ITT AUC compared to the TD group: 43.7%
STZ-induced T2DM rats [1]; ADD VI group, 50 mg/kg daily by gavage
  decrease of ITT AUC compared to the TD group: 45.2%
STZ-induced T2DM rats [2]; ADD V (10 mg/kg) group
  TG, LDL and HDL levels, 10 mg/kg against 3 mg/kg (in words): significantly lower than ADD IV (3 mg/kg) group rats
STZ-induced T2DM rats [2]; four weeks after administration, ADD-16: ADD III-ADD VI groups (1-50 mg/kg), P<0.05
  serum FFA, TC, TG, LDL and HDL levels (in words): significantly decreased
GPR40
  insulin secretion in GW1100-treated MIN6 cells (in words): increase insulin secretion in MIN6 cells treated with the GPR40 inhibitor GW1100
ZDF rat islet tissue
  expression of insulin signaling-related molecules, Western Blot (in words): upregulate the expression of GPR40, PGC-1α, P-P38, P-EP300, PPARγ, P-AKT, PI3K, IRS1 and GLUT4
[3]
  LD50: 123.2 µmol/L
